Results taken from patent US20230322722A1, “MODULATORS OF MYC FAMILY PROTO-ONCOGENE PROTEIN” (Nalo Therapeutics, priority 2020, published 2023).

Tests used:
Assay type in all cases: cell-based
MycN protein = biological target: T1, MycN protein (Homo sapiens, UniProt P04198); test: Degradation of MycN protein, Western blot, SKNBE2 cells (Example 160)
T1 construct: either 2×10^6 of L-363 (human leukemia cell line) or SKNBE2 (neuroblastoma cell line) cells; endogenous in cells; host or cells: SKNBE2 / SK-N-BE(2) neuroblastoma cells
T1 sequence (P04198 1-464): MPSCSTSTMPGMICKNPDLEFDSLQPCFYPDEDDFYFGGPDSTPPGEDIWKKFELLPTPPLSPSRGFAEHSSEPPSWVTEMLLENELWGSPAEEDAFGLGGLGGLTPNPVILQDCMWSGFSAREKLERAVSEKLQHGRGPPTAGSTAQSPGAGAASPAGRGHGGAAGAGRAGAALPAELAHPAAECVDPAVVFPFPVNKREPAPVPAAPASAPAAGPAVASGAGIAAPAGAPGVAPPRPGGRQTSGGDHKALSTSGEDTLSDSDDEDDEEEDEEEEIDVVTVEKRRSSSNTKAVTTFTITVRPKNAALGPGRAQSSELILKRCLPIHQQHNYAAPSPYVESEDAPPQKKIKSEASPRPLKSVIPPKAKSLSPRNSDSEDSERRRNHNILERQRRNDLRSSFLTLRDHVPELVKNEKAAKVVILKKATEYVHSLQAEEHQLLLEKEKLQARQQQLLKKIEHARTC
Outline: (§1)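 L-363 or SKNBE2 cells (passage <40, mostly <30) at 1×10^6 cells/mL in RPMI 1640/10% FBS were exposed 6 h to compound added from a 1 mM stock. RIPA lysates (25–30 ug protein) were analysed by SDS-PAGE and immunoblot with 1:500 primary antibody, with protein level quantified by band densitometry.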

MycC protein = biological target: T2, MycC protein (Homo sapiens, UniProt P01106); test: Degradation of MycC protein, Western blot, L-363 cells (Example 160); settings: for inhibition at 2 µM: 6 h
T2 construct: either 2×10^6 of L-363 (human leukemia cell line) or SKNBE2 (neuroblastoma cell line) cells; endogenous in cells; host or cells: L-363 / L363 human leukemia cells
Outline: as §1

MycN protein (n-myc) = biological target: T3, MycN protein (n-myc) (Homo sapiens, UniProt P04198); test: Degradation of MycN protein, 24 h treatment, JESS Western, SK-N-BE(2) cells (Example 161); settings: SKNBE2 cells
T3 construct: either 2×10^6 of L-363 (human leukemia cell line) or SKNBE2 (neuroblastoma cell line) cells; endogenous in cells; host or cells: SKNBE2 / SK-N-BE(2) neuroblastoma cells
T3 sequence (P04198 1-464): T1 sequence (P04198 1-464)

MycC protein (c-myc) = biological target: T4, MycC protein (c-myc) (Homo sapiens, UniProt P01106); test: Degradation of MycC protein, 24 h treatment, JESS Western, L363 cells (Example 161); settings: L-363 cells
T4 construct: either 2×10^6 of L-363 (human leukemia cell line) cells; endogenous in cells; host or cells: L-363 / L363 human leukemia cells
Outline: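 L363 suspension cells were seeded at 1E6 per well and exposed to compound, prepared as 10 mM DMSO stocks, for 24 hrs. Cells were pelleted, washed with PBS and lysed on ice in RIPA buffer, and lysate protein was measured by BCA. c-myc was detected by JESS capillary Western in the chemiluminescence channel, normalised to tubulin and GAPDH loading controls read in the NIR channel against a DMSO control.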

T4 sequence (P01106 whole entry): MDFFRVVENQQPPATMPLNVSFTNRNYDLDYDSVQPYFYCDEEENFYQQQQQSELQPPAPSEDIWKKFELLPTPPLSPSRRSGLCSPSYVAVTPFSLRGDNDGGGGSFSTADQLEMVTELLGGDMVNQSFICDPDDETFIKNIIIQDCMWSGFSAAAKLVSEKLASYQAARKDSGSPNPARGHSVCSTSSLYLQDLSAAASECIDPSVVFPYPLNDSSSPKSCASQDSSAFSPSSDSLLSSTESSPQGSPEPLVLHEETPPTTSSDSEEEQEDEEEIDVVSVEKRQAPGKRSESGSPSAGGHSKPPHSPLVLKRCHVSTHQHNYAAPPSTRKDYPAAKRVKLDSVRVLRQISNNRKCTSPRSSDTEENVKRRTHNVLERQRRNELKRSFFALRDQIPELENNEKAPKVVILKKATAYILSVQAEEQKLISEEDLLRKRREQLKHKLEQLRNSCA
T2 sequence (P01106 whole entry): as above

inhibition at 2 µM (MycN protein; SKNBE2, 6 h) [%]	inhibition at 2 µM (MycC protein) [%]	Compound	other results
< 20	20 to 49	CN1CC2(CC(N(C)c3nccc(Nc4cc(C5CC5)[nH]n4)n3)C2)C1 [Compound 7, N4-(5-cyclopropyl-1H-pyrazol-3-yl)-N2-methyl-N2-(2-methyl-2-azaspiro[3.3]heptan-6-yl)pyrimidine-2,4-diamine]	inhibition at 0.5 µM (MycN protein (n-myc); 0.5 μM): < 20%; inhibition at 1 µM (MycN protein (n-myc); 1 μM): < 20%; inhibition at 3 µM (MycN protein (n-myc); 3 μM): 20 to 49%; inhibition at 6 µM (MycN protein (n-myc); 6 μM): 80 to 100%; inhibition at 0.5 µM (MycC protein (c-myc); 0.5 μM): < 20%; inhibition at 1 µM (MycC protein (c-myc); 1 μM): 20 to 49%; inhibition at 3 µM (MycC protein (c-myc); 3 μM): 50 to 79%; inhibition at 6 µM (MycC protein (c-myc); 6 μM): 80 to 100%
< 20	< 20	CN(c1cc(C2CCCC2)[nH]n1)c1ccnc(N(C)[C@H]2CC[C@H](NC(=O)C3Cc4ccccc4C3)CC2)n1 [Compound 143, N-((1R,4R)-4-((4-((5-cyclopentyl-1H-pyrazol-3-yl)(methyl)amino)pyrimidin-2-yl)(methyl)amino)cyclohexyl)-2,3-dihydro-1H-indene-2-carboxamide]	–
80 to 100	80 to 100	Cn1nnc(CNC(=O)[C@H]2CC[C@H](N(C)c3nccc(Nc4cc(C5CC5)[nH]n4)n3)CC2)n1 [Compound 144, (1R,4R)-4-((4-((5-cyclopropyl-1H-pyrazol-3-yl)amino)pyrimidin-2-yl)(methyl)amino)-N-((2-methyl-2H-tetrazol-5-yl)methyl)cyclohexane-1-carboxamide]	–
50 to 79	80 to 100	Cn1nnc(C(=O)N[C@H]2CC[C@H](N(C)c3nccc(Nc4cc(C5CCCC5)[nH]n4)n3)CC2)n1 [Compound 145, N-((1R,4R)-4-((4-((5-cyclopentyl-1H-pyrazol-3-yl)amino)pyrimidin-2-yl)(methyl)amino)cyclohexyl)-2-methyl-2H-tetrazole-5-carboxamide]	–
< 20	20 to 49	CN(c1cc(C2CC2)[nH]n1)c1ccnc(N(C)[C@H]2CC[C@H](NC(=O)c3nnn(C)n3)CC2)n1 [Compound 147, N-((1R,4R)-4-((4-((5-cyclopropyl-1H-pyrazol-3-yl)(methyl)amino)pyrimidin-2-yl)(methyl)amino)cyclohexyl)-2-methyl-2H-tetrazole-5-carboxamide]	–
< 20	20 to 49	CN(c1cc(C2CCCC2)[nH]n1)c1ccnc(N(C)[C@H]2CC[C@H](NC(=O)c3cccc(S(C)(=O)=O)c3)CC2)n1 [Compound 148, N-((1R,4R)-4-((4-((5-cyclopentyl-1H-pyrazol-3-yl)(methyl)amino)pyrimidin-2-yl)(methyl)amino)cyclohexyl)-3-(methylsulfonyl)benzamide]	–
80 to 100	80 to 100	CN(c1nccc(Nc2cc(C3CC3)[nH]n2)n1)[C@H]1CC[C@H](NC(=O)c2cn(C3COC3)nn2)CC1 [Compound 149, N-((1R,4R)-4-((4-((5-cyclopropyl-1H-pyrazol-3-yl)amino)pyrimidin-2-yl)(methyl)amino)cyclohexyl)-1-(oxetan-3-yl)-1H-1,2,3-triazole-4-carboxamide]	–
80 to 100	80 to 100	CN(c1nccc(Nc2cc(C3CC3)[nH]n2)n1)[C@H]1CC[C@H](NC(=O)c2cn(CC3(C)COC3)nn2)CC1 [Compound 150, N-((1R,4R)-4-((4-((5-cyclopropyl-1H-pyrazol-3-yl)amino)pyrimidin-2-yl)(methyl)amino)cyclohexyl)-1-((3-methyloxetan-3-yl)methyl)-1H-1,2,3-triazole-4-carboxamide]	–
80 to 100	80 to 100	Cn1nnc2ccc(C(=O)N[C@H]3CC[C@H](N(C)c4nccc(Nc5cc(C6CC6)[nH]n5)n4)CC3)cc21 [Compound 151, N-((1R,4R)-4-((4-((5-cyclopropyl-1H-pyrazol-3-yl)amino)pyrimidin-2-yl)(methyl)amino)cyclohexyl)-1-methyl-1H-benzo[d][1,2,3]triazole-6-carboxamide]	–
80 to 100	80 to 100	CN(c1nccc(Nc2cc(C3CC3)[nH]n2)n1)[C@H]1CC[C@H](NS(=O)(=O)Cc2cccc(C(F)(F)F)c2)CC1 [Compound 152, N-((1R,4R)-4-((4-((5-cyclopropyl-1H-pyrazol-3-yl)amino)pyrimidin-2-yl)(methyl)amino)cyclohexyl)-1-(3-(trifluoromethyl)phenyl)methanesulfonamide]	–
50 to 79	80 to 100	CN(c1nccc(Nc2cc(C3CC3)[nH]n2)n1)[C@H]1CC[C@H](NS(=O)(=O)c2cccc(C#N)c2)CC1 [Compound 154, 3-cyano-N-((1R,4R)-4-((4-((5-cyclopropyl-1H-pyrazol-3-yl)amino)pyrimidin-2-yl)(methyl)amino)cyclohexyl)benzenesulfonamide]	–
80 to 100	80 to 100	CN(c1nccc(Nc2cc(C3CC3)[nH]n2)n1)[C@H]1CC[C@H](NS(=O)(=O)c2cccc(S(C)(=O)=O)c2)CC1 [Compound 155, N-((1R,4R)-4-((4-((5-cyclopropyl-1H-pyrazol-3-yl)amino)pyrimidin-2-yl)(methyl)amino)cyclohexyl)-3-(methylsulfonyl)benzenesulfonamide]	–
50 to 79	80 to 100	CN(c1nccc(Nc2cc(C3CC3)[nH]n2)n1)[C@H]1CC[C@H](NS(=O)(=O)Cc2cccc(S(C)(=O)=O)c2)CC1 [Compound 157, N-((1R,4R)-4-((4-((5-cyclopropyl-1H-pyrazol-3-yl)amino)pyrimidin-2-yl)(methyl)amino)cyclohexyl)-1-(3-(methylsulfonyl)phenyl)methanesulfonamide]	–
50 to 79	80 to 100	CN(c1nccc(Nc2cc(C3CC3)[nH]n2)n1)[C@H]1CC[C@H](NS(=O)(=O)Cc2cccc(C#N)c2)CC1 [Compound 158, 1-(3-cyanophenyl)-N-((1R,4R)-4-((4-((5-cyclopropyl-1H-pyrazol-3-yl)amino)pyrimidin-2-yl)(methyl)amino)cyclohexyl)methanesulfonamide]	–
–	–	N-((1R,4R)-4-((4-((5-cyclopropyl-1H-pyrazol-3-yl)amino)pyrimidin-2-yl)(methyl)amino)cyclohexyl)-3-methylcyclopent-3-ene-1-sulfonamide [Compound 153]	% Degradation of MycN (SKNBE2) 6 h, 2 μM (MycN protein): **** (degradation 80-100%); % Degradation of MycC (L-363) 6 h, 2 μM (MycC protein): **** (degradation 80-100%)

Compound	inhibition at 2 µM (MycN protein; SKNBE2, 6 h) [%]	inhibition at 2 µM (MycC protein) [%]	other results
CN(c1nccc(Nc2cc(C3CC3)[nH]n2)n1)[C@H]1CC[C@H](NS(=O)(=O)c2ccc(C#N)cn2)CC1 [Compound 156, 5-cyano-N-((1R,4R)-4-((4-((5-cyclopropyl-1H-pyrazol-3-yl)amino)pyrimidin-2-yl)(methyl)amino)cyclohexyl)pyridine-2-sulfonamide]	–	80 to 100	inhibition at 2 µM (MycN protein; 6 h): 50 to 79%
